T1: Solute carrier organic anion transporter family member 1B3 (OATP1B3) (Homo sapiens, UniProt Q9NPD5)
T1 sequence (Q9NPD5 whole entry): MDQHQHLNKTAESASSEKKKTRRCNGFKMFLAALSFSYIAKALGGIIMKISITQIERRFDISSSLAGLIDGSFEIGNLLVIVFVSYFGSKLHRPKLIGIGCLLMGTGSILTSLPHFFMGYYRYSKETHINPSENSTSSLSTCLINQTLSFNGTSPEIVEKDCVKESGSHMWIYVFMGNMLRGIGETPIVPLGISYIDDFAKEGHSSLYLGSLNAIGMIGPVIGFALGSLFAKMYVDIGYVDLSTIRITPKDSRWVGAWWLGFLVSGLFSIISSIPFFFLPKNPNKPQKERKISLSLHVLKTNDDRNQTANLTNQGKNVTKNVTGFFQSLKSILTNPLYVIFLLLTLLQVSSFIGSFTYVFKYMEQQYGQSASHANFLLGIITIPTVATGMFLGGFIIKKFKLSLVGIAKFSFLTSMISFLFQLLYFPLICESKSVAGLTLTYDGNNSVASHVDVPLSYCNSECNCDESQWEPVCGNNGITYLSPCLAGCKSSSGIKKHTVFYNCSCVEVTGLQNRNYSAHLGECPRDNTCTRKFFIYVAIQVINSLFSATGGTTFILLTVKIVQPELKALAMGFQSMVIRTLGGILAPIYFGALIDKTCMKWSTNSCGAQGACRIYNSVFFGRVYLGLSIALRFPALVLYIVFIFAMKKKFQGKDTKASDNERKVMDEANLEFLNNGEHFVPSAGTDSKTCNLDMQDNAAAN

T2: Solute carrier organic anion transporter family member 1A2 (Homo sapiens, UniProt P46721)
T2 sequence (P46721 whole entry): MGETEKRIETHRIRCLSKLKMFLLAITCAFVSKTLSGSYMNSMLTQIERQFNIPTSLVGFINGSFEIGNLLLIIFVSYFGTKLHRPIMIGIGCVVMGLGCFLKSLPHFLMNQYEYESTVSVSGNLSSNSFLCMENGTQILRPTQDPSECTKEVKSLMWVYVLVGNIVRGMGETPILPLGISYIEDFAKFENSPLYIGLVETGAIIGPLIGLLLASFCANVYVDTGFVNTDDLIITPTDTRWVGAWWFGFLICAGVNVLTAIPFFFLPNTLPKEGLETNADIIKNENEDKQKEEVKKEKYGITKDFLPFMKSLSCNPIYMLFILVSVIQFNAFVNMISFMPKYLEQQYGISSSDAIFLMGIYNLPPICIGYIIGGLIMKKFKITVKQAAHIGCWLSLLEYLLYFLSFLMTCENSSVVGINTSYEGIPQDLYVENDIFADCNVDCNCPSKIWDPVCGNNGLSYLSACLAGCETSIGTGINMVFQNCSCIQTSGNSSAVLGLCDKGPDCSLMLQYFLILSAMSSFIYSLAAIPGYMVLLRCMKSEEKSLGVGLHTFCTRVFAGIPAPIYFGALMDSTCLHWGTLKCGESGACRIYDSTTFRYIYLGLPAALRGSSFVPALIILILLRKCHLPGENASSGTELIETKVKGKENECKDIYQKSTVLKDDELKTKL

T3: Solute carrier organic anion transporter family member 2B1 (Homo sapiens, UniProt O94956)
T3 sequence (O94956 whole entry): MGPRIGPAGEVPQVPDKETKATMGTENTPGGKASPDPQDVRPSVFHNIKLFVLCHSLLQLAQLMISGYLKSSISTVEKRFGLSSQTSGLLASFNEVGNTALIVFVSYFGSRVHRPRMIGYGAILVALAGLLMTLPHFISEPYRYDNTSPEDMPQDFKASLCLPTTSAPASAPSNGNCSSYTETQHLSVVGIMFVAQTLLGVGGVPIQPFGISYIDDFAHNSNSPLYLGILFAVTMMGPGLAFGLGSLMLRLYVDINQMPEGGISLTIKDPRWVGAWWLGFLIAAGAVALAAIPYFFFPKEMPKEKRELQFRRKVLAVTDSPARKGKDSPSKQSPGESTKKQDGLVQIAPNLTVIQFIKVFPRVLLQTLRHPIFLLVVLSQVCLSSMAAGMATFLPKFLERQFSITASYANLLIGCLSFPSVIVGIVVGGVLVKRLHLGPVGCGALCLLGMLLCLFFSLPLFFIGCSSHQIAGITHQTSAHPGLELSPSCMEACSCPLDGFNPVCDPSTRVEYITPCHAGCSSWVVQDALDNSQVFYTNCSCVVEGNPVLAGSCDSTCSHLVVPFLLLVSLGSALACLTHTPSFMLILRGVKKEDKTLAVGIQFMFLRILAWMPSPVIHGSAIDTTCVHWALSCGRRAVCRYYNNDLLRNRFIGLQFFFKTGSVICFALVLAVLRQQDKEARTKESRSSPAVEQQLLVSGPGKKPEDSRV

T4: Solute carrier organic anion transporter family member 1B1 (Homo sapiens, UniProt Q9Y6L6)
T4 sequence (Q9Y6L6 whole entry): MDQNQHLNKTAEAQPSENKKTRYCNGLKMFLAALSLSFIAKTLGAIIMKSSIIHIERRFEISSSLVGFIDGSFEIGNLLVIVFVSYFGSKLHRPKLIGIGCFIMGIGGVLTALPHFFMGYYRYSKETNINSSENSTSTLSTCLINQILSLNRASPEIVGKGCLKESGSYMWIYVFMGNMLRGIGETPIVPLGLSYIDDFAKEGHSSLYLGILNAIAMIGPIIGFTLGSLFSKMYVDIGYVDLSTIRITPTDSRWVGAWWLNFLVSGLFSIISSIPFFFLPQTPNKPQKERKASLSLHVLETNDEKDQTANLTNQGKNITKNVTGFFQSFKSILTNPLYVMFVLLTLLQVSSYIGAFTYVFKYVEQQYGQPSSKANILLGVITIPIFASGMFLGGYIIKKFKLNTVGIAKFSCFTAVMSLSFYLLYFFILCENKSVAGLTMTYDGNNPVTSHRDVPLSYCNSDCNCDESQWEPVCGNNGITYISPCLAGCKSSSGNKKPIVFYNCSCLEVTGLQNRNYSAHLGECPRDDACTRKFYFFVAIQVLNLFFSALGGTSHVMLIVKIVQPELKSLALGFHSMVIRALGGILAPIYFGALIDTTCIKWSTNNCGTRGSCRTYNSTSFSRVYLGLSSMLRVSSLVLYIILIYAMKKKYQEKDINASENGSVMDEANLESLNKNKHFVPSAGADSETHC

T5: Solute carrier organic anion transporter family member 1B3 (Homo sapiens, UniProt Q9NPD5)
T5 sequence (Q9NPD5 whole entry): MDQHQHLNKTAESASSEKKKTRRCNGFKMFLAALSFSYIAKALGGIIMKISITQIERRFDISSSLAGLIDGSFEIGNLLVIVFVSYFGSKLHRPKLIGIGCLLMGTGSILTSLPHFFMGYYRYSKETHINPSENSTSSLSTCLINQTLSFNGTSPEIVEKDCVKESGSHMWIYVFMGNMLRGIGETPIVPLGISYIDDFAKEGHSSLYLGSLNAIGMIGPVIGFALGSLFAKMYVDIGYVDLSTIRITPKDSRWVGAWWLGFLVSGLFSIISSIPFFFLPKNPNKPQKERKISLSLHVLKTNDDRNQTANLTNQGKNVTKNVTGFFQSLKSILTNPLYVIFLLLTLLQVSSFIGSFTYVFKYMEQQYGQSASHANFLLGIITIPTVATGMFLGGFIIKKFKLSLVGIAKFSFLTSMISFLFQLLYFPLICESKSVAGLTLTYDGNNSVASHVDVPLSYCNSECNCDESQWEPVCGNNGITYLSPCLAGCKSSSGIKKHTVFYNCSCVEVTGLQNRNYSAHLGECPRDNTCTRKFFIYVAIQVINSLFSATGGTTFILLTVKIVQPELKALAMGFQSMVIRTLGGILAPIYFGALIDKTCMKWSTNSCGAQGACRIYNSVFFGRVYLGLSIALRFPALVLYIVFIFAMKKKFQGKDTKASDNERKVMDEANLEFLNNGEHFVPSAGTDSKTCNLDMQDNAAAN


Legend:
[1] = biological target: T1, Solute carrier organic anion transporter family member 1B3 (OATP1B3); assay: (§1) TP_TRANSPORTER: uptake in Xenopus laevis oocytes; type: functional, cell-based, Oocyte; details: Xenopus laevis oocytes expressing the transporter
[2] = biological target: T2, Solute carrier organic anion transporter family member 1A2; assay: as §1; type: functional, cell-based; details: oocyte
[3] = biological target: T3, Solute carrier organic anion transporter family member 2B1; assay: as §1; type: functional, cell-based; details: oocyte
[4] = biological target: T2, Solute carrier organic anion transporter family member 1A2; assay: (§2) TP_TRANSPORTER: inhibition of BSP uptake in Xenopus laevis oocytes; type: functional, cell-based, Oocyte
[5] = biological target: T4, Solute carrier organic anion transporter family member 1B1; assay: as §2; type: functional, cell-based, Oocyte
[6] = biological target: T5, Solute carrier organic anion transporter family member 1B3; assay: as §2; type: functional, cell-based, Oocyte
[7] = biological target: T3, Solute carrier organic anion transporter family member 2B1; assay: as §2; type: functional, cell-based, Oocyte
[8] = substrate: CO[C@H]1/C=C/O[C@@]2(C)Oc3c(C)c(O)c4c(O)c(c(/C=N/N5CCN(C)CC5)c(O)c4c3C2=O)NC(=O)/C(C)=C\C=C\[C@H](C)[C@H](O)[C@@H](C)[C@@H](O)[C@@H](C)[C@H](OC(C)=O)[C@@H]1C; assay: as §1; type: functional, cell-based, Oocyte

Row | Ki [7] [µM] | Molecule | Km [1] [µM] | Activity [2] | Activity [3] | Ki [4] [µM] | Ki [5] [µM] | Ki [6] [µM] | Km [8] [µM]
1 |  | CO[C@H]1/C=C/O[C@@]2(C)Oc3c(C)c(O)c4c(O)c(c(/C=N/N5CCN(C)CC5)c(O)c4c3C2=O)NC(=O)/C(C)=C\C=C\[C@H](C)[C@H](O)[C@@H](C)[C@@H](O)[C@@H](C)[C@H](OC(C)=O)[C@@H]1C [RIFAMPIN] | 2.3 | is not a substrate [-] | is not a substrate [-] | 51 | 17 | 5 | 
2 | 3 | CO[C@H]1/C=C/O[C@@]2(C)Oc3c(C)c(O)c4c(O)c(cc(O)c4c3C2=O)NC(=O)/C(C)=C\C=C\[C@H](C)[C@H](O)[C@@H](C)[C@@H](O)[C@@H](C)[C@H](OC(C)=O)[C@@H]1C [RIFAMYCIN] |  |  |  | 11 | 2 | 3 | 
3 |  | Solute carrier organic anion transporter family member 1B1 (Homo sapiens) (protein) MDQNQHLNKTAEAQPSENKKTRYCNGLKMFLAALSLSFIAKTLGAIIMKSSIIHIERRFEISSSLVGFIDGSFEIGNLLVIVFVSYFGSKLHRPKLIGIGCFIMGIGGVLTALPHFFMGYYRYSKETNINSSENSTSTLSTCLINQILSLNRASPEIVGKGCLKESGSYMWIYVFMGNMLRGIGETPIVPLGLSYIDDFAKEGHSSLYLGILNAIAMIGPIIGFTLGSLFSKMYVDIGYVDLSTIRITPTDSRWVGAWWLNFLVSGLFSIISSIPFFFLPQTPNKPQKERKASLSLHVLETNDEKDQTANLTNQGKNITKNVTGFFQSFKSILTNPLYVMFVLLTLLQVSSYIGAFTYVFKYVEQQYGQPSSKANILLGVITIPIFASGMFLGGYIIKKFKLNTVGIAKFSCFTAVMSLSFYLLYFFILCENKSVAGLTMTYDGNNPVTSHRDVPLSYCNSDCNCDESQWEPVCGNNGITYISPCLAGCKSSSGNKKPIVFYNCSCLEVTGLQNRNYSAHLGECPRDDACTRKFYFFVAIQVLNLFFSALGGTSHVMLIVKIVQPELKSLALGFHSMVIRALGGILAPIYFGALIDTTCIKWSTNNCGTRGSCRTYNSTSFSRVYLGLSSMLRVSSLVLYIILIYAMKKKYQEKDINASENGSVMDEANLESLNKNKHFVPSAGADSETHC |  |  |  |  |  |  | 13
